# Results from patent US20040214832A1, “Piperazine derivative renin inhibitors” (priority 2003, published 2004).
# Biological target: T1, human renin (Homo sapiens, UniProt P00797)
# T1 sequence (P00797 67-406): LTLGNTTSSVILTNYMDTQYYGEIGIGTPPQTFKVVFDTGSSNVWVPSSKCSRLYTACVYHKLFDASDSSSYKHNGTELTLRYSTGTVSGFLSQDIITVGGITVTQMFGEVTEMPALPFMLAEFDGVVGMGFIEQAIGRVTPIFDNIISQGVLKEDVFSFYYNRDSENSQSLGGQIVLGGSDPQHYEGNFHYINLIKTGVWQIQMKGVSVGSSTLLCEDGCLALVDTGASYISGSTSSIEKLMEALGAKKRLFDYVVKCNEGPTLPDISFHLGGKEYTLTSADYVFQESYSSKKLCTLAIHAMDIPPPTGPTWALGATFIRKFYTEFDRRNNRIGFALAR
# Assay: Determination of renin IC50 by tGFP FRET assay
# Format: biochemical
# Details: Human recombinant renin, tandem GFP substrate 650 nM, 60 min incubation with compound, pH 7.4, 11-point curve
# From the text: Determination of Renin IC50 by tGFP FRET Assay
# The tGFP FRET (fluorescence resonance energy transfer) assay utilizes a tandem GFP substrate (60 kDa, Discovery Technologies) containing nine amino acid recognition sequences for human renin flanked by two GFP proteins. The assay is used to determine the ability of a compound to act as an inhibitor of renin enzymatic activity by determination of that concentration of test compound that inhibits by 50% (IC50) the ability of renin to cleave the tandem GFP substrate. The IC50 values are determined over an 11-point curve at concentrations of 100 μM to 1 pM. Each compound concentration used to construct the curve was dependent on renin inhibitor potency. For example, subnanomolar IC50 values were determined over an 11-point curve at concentrations of 10 μM to 1 pM. All other IC50 values were determined over an 11-point curve at concentrations of 100 μM to 0.0065 μM. The concentrations were achieved by diluting a 9.1 nM stock of Human recombinant renin in the appropriate amount of buffer containing 50 mM HEPES, 1 mM EDTA, 1% PEG (8000 MW), 1 mM DTT, 0.1% BSA, pH 7.4 to achieve the final concentration of 50.4 μIU. The tGFP substrate stock solution of 43 μM was diluted with the appropriate amount of the above buffer to obtain the final concentration of 650 nM. In addition, 1 μl of the compound is diluted in dimethylsulfoxide (DMSO) to represent an […] log scale (5% final). The SR renin and compound are added to a 384 capacity plate by an automated robot (BIOMEK). The plate is incubated for 60 minutes; upon completion the tGFP substrate is added.
# The IC50 is determined by monitoring the increase in […] at 432/432 nm excitation, 530/475 nm emission with a cutoff at 515/455 nm, in a fluorometric plate reader.
row,SMILES,IC50
1,"COc1ccccc1COCCCOc1ccc(N2C(=O)CNC[C@@H]2COC(=O)c2ccc(Cl)cc2)cc1 [Example 60, 4-chloro-benzoic acid (2R)-1-{4-[3-(2-methoxybenzyloxy)-propoxy]-phenyl}-6-oxopiperazin-2-yl methyl ester]",> 1 µM
2,"COc1ccccc1COCCCOc1ccc(N2C(=O)CNC[C@@H]2COC(=O)c2ccccc2)cc1 [Example 61, benzoic acid (2R)-1-{4-[3-(2-methoxybenzyloxy)-propoxy]-phenyl}-6-oxopiperazin-2-yl methyl ester]",> 1 µM
3,"COc1ccc(COCCCOc2ccc(N3CCNC[C@@H]3COCc3ccc(OC)cc3)cc2)cc1 [Example 65, (2R)-2-(4-methoxybenzyloxymethyl)-1-{4-[3-(4-methoxybenzyloxy)-propoxy]-phenyl}-piperazine]",> 1 µM
4,"COc1ccc(COC[C@H]2CNCCN2c2ccc(COCCCOc3ccccc3OC)cc2)cc1 [Example 70, (2R)-2-(4-methoxybenzyloxymethyl)-1-{4-[3-(2-methoxyphenoxy)-propoxymethyl]-phenyl}-piperazine]",> 1 µM
5,"COc1ccccc1OCCCCOc1ccc(N2C(=O)CNC[C@@H]2COCc2ccc(F)cc2)cc1 [Example 71, (6R)-6-(4-fluorobenzyloxymethyl)-1-{4-[4-(2-methoxyphenoxy)-butoxy]-phenyl}-piperazin-2-one]",3.84 µM
6,"COc1ccccc1OCCCCOc1ccc(N2C(=O)CNC[C@@H]2COc2ccc3ccccc3c2)cc1 [Example 73, (6R)-1-{4-[4-(2-methoxyphenoxy)-butoxy]-phenyl}-6-(naphthalen-2-yloxymethyl)-piperazin-2-one]",1.73 µM
7,"COc1ccc(COC[C@H]2CNCCN2c2ccc(OCCCCOc3ccccc3OC)cc2)cc1 [Example 75, (2R)-2-(4-methoxybenzyloxymethyl)-1-{4-[4-(2-methoxyphenoxy)-butoxy]-phenyl}-piperazine]",42 µM
8,"COc1ccccc1OCCCOCc1ccc(N2C(=O)CNC[C@@H]2COCc2ccc(F)cc2)cc1 [Example 76, (6R)-6-(4-fluorobenzyloxymethyl)-1-{4-[3-(2-methoxyphenoxy)-propoxymethyl]-phenyl}-piperazin-2-one]",> 1 µM
9,"COc1ccccc1COCCCOc1ccc(N2C(=O)CNC[C@@H]2CNC(=O)c2ccccc2OC)cc1 [Example 82, 2-methoxy-N-([2R]-1-{4-[3-(2-methoxybenzyloxy)-propoxy]-phenyl}-6-oxopiperazin-2-ylmethyl)-benzamide]",> 1 µM
10,"COc1ccccc1COCCCOc1ccc(N2C(=O)CNC[C@@H]2CNC(=O)c2ccc(Cl)cc2)cc1 [Example 83, 4-chloro-N-([2R]-1-{4-[3-(2-methoxybenzyloxy)-propoxy]-phenyl}-6-oxopiperazin-2-ylmethyl)-benzamide]",> 1 µM
11,"COc1ccccc1COCCCOc1ccc(N2C(=O)CNC[C@@H]2CNC(=O)c2ccccc2)cc1 [Example 84, N-([2R]-1-{4-[3-(2-methoxy-benzyloxy)-propoxy]-phenyl}-6-oxopiperazin-2-ylmethyl)-benzamide]",> 1 µM
12,"COc1ccccc1COCCCOc1ccc(N2C(=O)CNC[C@@H]2CNC(=O)c2ccc3ccccc3c2)cc1 [Example 85, naphthalene-2-carboxylic acid ([2R]-1-{4-[3-(2-methoxybenzyloxy)-propoxy]-phenyl}-6-oxopiperazin-2-ylmethyl)-amide]",> 1 µM
13,"COc1ccccc1COCCCOc1ccc(N2C(=O)CNC[C@@H]2CNC(=O)c2ccccc2F)cc1 [Example 86, 2-fluoro-N-([2R]-1-{4-[3-(2-methoxybenzyloxy)-propoxy]-phenyl}-6-oxopiperazin-2-ylmethyl)-benzamide]",> 1 µM

# Further lines, results first:
row,IC50,SMILES
1,> 1 µM,"COc1ccccc1COCCCOc1ccc(N2C(=O)CNC[C@@H]2COC(=O)c2ccc(C)cc2)cc1 [Example 59, 4-methyl-benzoic acid (2R)-1-{4-[3-(2-methoxybenzyloxy)-propoxy]-phenyl}-6-oxopiperazin-2-yl methyl ester]"
2,43.7 µM,"COc1ccc(COC[C@H]2CNCCN2c2ccc(OCCCOCc3ccc(Cl)cc3)cc2)cc1 [Example 62, (2R)-1-{4-[3-(4-chlorobenzyloxy)-propoxy]-phenyl}-2-(4-methoxybenzyloxymethyl)-piperazine]"
3,11.5 µM,"COc1ccc(COC[C@H]2CNCCN2c2ccc(OCCCOCc3ccc(Cl)c(Cl)c3)cc2)cc1 [Example 63, (2R)-1-{4-[3-(3,4-dichlorobenzyloxy)-propoxy]-phenyl}-2-(4-methoxybenzyloxymethyl)-piperazine]"
4,5.04 µM,"COc1ccc(COC[C@H]2CNCCN2c2ccc(OCCCOCc3cccc(Cl)c3)cc2)cc1 [Example 64, (2R)-1-{4-[3-(3-chlorobenzyloxy)-propoxy]-phenyl}-2-(4-methoxybenzyloxymethyl)-piperazine]"
5,15.9 µM,"COc1ccc(COC[C@H]2CNCCN2c2ccc(OCCCOCc3ccccc3Cl)cc2)cc1 [Example 66, (2R)-1-{4-[3-(2-chlorobenzyloxy)-propoxy]-phenyl}-2-(4-methoxybenzyloxymethyl)-piperazine]"
6,4.34 µM,"COc1ccc(COC[C@H]2CNCCN2c2ccc(OCCCOCc3cc(F)cc(F)c3)cc2)cc1 [Example 67, (2R)-1-{4-[3-(3,5-difluorobenzyloxy)-propoxy]-phenyl}-2-(4-methoxybenzyloxymethyl)-piperazine]"
7,60.2 µM,"COc1ccc(COC[C@H]2CNCCN2c2ccc(OCCCOCc3ccc(C)cc3)cc2)cc1 [Example 68, (2R)-2-(4-methoxybenzyloxymethyl)-1-{4-[3-(4-methylbenzyloxy)-propoxy]-phenyl}-piperazine]"
8,15.6 µM,"COc1ccc(COC[C@H]2CNCCN2c2ccc(OCCCOCc3cccc(OC)c3)cc2)cc1 [Example 69, (2R)-2-(4-methoxybenzyloxymethyl)-1-{4-[3-(3-methoxybenzyloxy)-propoxy]-phenyl}-piperazine]"
9,30.5 µM,"COc1ccc(COC[C@H]2CNCCN2c2ccc(COCCOCc3ccccc3OC)cc2)cc1 [Example 72, (2R)-1-{4-[2-(2-methoxybenzyloxy)-ethoxymethyl]-phenyl}-2-(4-methoxybenzyloxymethyl)-piperazine]"
10,4.09 µM,"COc1ccccc1COCCOCc1ccc(N2C(=O)CNC[C@@H]2COCc2ccc(F)cc2)cc1 [Example 74, (6R)-6-(4-fluorobenzyloxymethyl)-1-{4-[2-(2-methoxybenzyloxy)-ethoxymethyl]-phenyl}-piperazin-2-one]"
11,13.1 µM,"COc1ccccc1COCCCOc1ccc(N2C(=O)CNC[C@@H]2COc2ccc3ccccc3n2)cc1 [Example 77, (6R)-1-{4-[3-(2-methoxybenzyloxy)-propoxy]-phenyl}-6-(quinolin-2-yloxymethyl)-piperazin-2-one]"
12,76.4 µM,"COc1ccccc1COCCCOc1ccc(N2C(=O)CNC[C@@H]2COc2cnccn2)cc1 [Example 79, (6R)-1-{4-[3-(2-methoxybenzyloxy)-propoxy]-phenyl}-6-(pyrazin-2-yloxymethyl)-piperazin-2-one]"
13,20.9 µM,"COc1ccccc1COCCCOc1ccc(N2C(=O)CNC[C@@H]2COc2ccccn2)cc1 [Example 80, (6R)-1-{4-[3-(2-methoxybenzyloxy)-propoxy]-phenyl}-6-(pyridin-2-yloxymethyl)-piperazin-2-one]"
14,33.9 µM,"COc1ccccc1COCCCOc1ccc(N2C(=O)CNC[C@@H]2COc2ncccn2)cc1 [Example 81, (6R)-1-{4-[3-(2-methoxybenzyloxy)-propoxy]-phenyl}-6-(pyrimidin-2-yloxymethyl)-piperazin-2-one]"
15,0.597 µM,"Fc1ccccc1COCCCOc1ccc(N2CCNC[C@@H]2COc2ccc3ccccc3c2)cc1 [Example 87, (2R)-1-{4-[3-(2-fluorobenzyloxy)-propoxy]-phenyl}-2-(naphthalen-2-yloxymethyl)-piperazine]"
16,1.98 µM,"CCOc1ccccc1COCCCOc1ccc(N2CCNC[C@@H]2COc2ccc3ccccc3c2)cc1 [Example 88, (2R)-1-{4-[3-(2-ethoxybenzyloxy)-propoxy]-phenyl}-2-(naphthalen-2-yloxymethyl)-piperazine]"
17,23.7 µM,"COc1cccc(COCCCOc2ccc(N3CCNC[C@@H]3COc3ccc4ccccc4c3)cc2)c1 [Example 89, (2R)-1-{4-[3-(3-methoxybenzyloxy)-propoxy]-phenyl}-2-(naphthalen-2-yloxymethyl)-piperazine]"
